Laboratory results reported in PubChem BioAssay (NCI).
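Dose response: 5 concentrations. Exposure: 48 h. Format: 96-well plates. Endpoint: linear interpolation; highest concentration if not reached. GI50: concentration for 50% inhibition of growth. Definition used: TGI = concentration required for complete inhibition of growth.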

What follows are compounds tested on HCC-2998 colon (assay: NCI anticancer screen, dose series, 48 h).
In the case of COc1ccc2c(Oc3ccc(NC(=O)c4c(C)n(CC(C)(C)O)n(-c5ccccc5)c4=O)nc3)ccnc2c1, the GI50 is reported as 34 µM and the TGI is reported as greater than 100 µM.
CC1C(=O)OC2CC[N+]3([O-])CC=C(COC(=O)C(C)(O)C1(C)O)C23 (configuration not stated) gave a TGI greater than 100 µM.
For O=C(OCc1ccc2c(Cl)cc(Cl)c(O)c2n1)N1CCN(C(=O)c2cc3cc(F)ccc3[nH]2)CC1, the GI50 was 3.95 µM and the TGI was greater than 94.6 µM.
With COc1ccc(Cc2cnc(NC(=O)c3ccc4c(c3)OCCO4)s2)cc1 the GI50 was 0.038 µM and the TGI was greater than 69.6 µM.
COCOc1ccc(C2(O)Oc3cc(OCOC)ccc3C2C)c(O)c1 (configuration not stated) showed a TGI of 26.6 µM.
For C[C@H]1CCC/C=C/[C@@H]2C[C@H](O)C[C@H]2[C@H](O)[C@@H](SCC(O)CO)CC(=O)O1 (some centres not stated), the GI50 was 14.3 µM and the TGI was 42.2 µM.
C=CCN1CC2CON(C(=O)C(OC)(c3ccccc3)C(F)(F)F)C2C1C(C)C (configuration not stated) was tested, and the GI50 was 18.1 µg/mL and the TGI was 38.8 µg/mL.
CC[C@@]1(O)C(=O)OCc2c1cc1n(c2=O)Cc2c-1nc1cc(F)c(C)c3c1c2[C@@H](N)CC3 gave a GI50 of 0.0314 µM and a TGI of 0.665 µM.
Nc1ccc2nc3n(c2c1)C(=O)c1ccccc1-3 was tested, and the TGI was greater than 100 µM.
With Cn1cc(-c2ccc(-c3cncc(Cl)c3N3CCC4(CCNC4=O)CC3)cc2)cn1 the GI50 was greater than 100 µM and the TGI was greater than 100 µM.
Compound CC/C=C/C/C=C/C/C=C/C/C=C/C/C=C/C/C=C/CCC(=O)Nc1ccn([C@@H]2O[C@H](CO)[C@@H](O)C2(F)F)c(=O)n1 has a GI50 of 14.9 µM and a TGI greater than 64.4 µM.
C/C(=N\NC(=S)N1CC2CCC(CC2)C1)c1ccccn1 was tested, and the GI50 was 0.171 µM and the TGI was 1.8 µM.
With O=C(NCc1ccc(S(=O)(=O)c2cc(F)cc(F)c2)cc1)c1ccc2nccn2c1 the GI50 was 14.6 µM and the TGI was greater than 100 µM.
For NC(=S)N/N=C/c1cc(-c2cccc(N)c2)ccn1, the GI50 was 2.2 µM and the TGI was greater than 43.5 µM.
For Cc1nn(C(=O)c2ccc(Cl)cc2)c2c1C(c1ccc(O)cc1)SC(N)=N2 (configuration not stated), the TGI was greater than 10 µM.

Each compound was assayed on OVCAR-8 ovarian (assay: NCI anticancer screen, dose series, 48 h).
Compound COc1ccc2c(Oc3ccc(NC(=O)c4c(C)n(CC(C)(C)O)n(-c5ccccc5)c4=O)nc3)ccnc2c1 has a GI50 of 9.48 µM and a TGI greater than 100 µM.
CC1C(=O)OC2CC[N+]3([O-])CC=C(COC(=O)C(C)(O)C1(C)O)C23 (configuration not stated) was tested, and the TGI was greater than 100 µM.
Compound O=C(OCc1ccc2c(Cl)cc(Cl)c(O)c2n1)N1CCN(C(=O)c2cc3cc(F)ccc3[nH]2)CC1 has a GI50 of 0.551 µM and a TGI greater than 100 µM.
COc1ccc(Cc2cnc(NC(=O)c3ccc4c(c3)OCCO4)s2)cc1 was tested, and the GI50 was 0.0426 µM and the TGI was greater than 100 µM.
Work on COCOc1ccc(C2(O)Oc3cc(OCOC)ccc3C2C)c(O)c1 (configuration not stated) yielded a TGI of 32 µM.
For C[C@H]1CCC/C=C/[C@@H]2C[C@H](O)C[C@H]2[C@H](O)[C@@H](SCC(O)CO)CC(=O)O1 (some centres not stated), the GI50 was greater than 100 µM and the TGI was greater than 100 µM.
For C=CCN1CC2CON(C(=O)C(OC)(c3ccccc3)C(F)(F)F)C2C1C(C)C (configuration not stated), the GI50 was 57.7 µg/mL.
With CC[C@@]1(O)C(=O)OCc2c1cc1n(c2=O)Cc2c-1nc1cc(F)c(C)c3c1c2[C@@H](N)CC3 the GI50 was less than 0.01 µM and the TGI was greater than 100 µM.
Compound Nc1ccc2nc3n(c2c1)C(=O)c1ccccc1-3 has a TGI greater than 100 µM.
Compound Cn1cc(-c2ccc(-c3cncc(Cl)c3N3CCC4(CCNC4=O)CC3)cc2)cn1 has a GI50 of 29.4 µM and a TGI greater than 100 µM.
In the case of CC/C=C/C/C=C/C/C=C/C/C=C/C/C=C/C/C=C/CCC(=O)Nc1ccn([C@@H]2O[C@H](CO)[C@@H](O)C2(F)F)c(=O)n1, the GI50 is reported as 0.0345 µM and the TGI is reported as 9.55 µM.
C/C(=N\NC(=S)N1CC2CCC(CC2)C1)c1ccccn1 showed a GI50 of less than 0.0209 µM and a TGI of 1.53 µM.
O=C(NCc1ccc(S(=O)(=O)c2cc(F)cc(F)c2)cc1)c1ccc2nccn2c1 gave a GI50 of less than 0.01 µM and a TGI greater than 100 µM.
With NC(=S)N/N=C/c1cc(-c2cccc(N)c2)ccn1 the GI50 was 1.66 µM and the TGI was greater than 67.9 µM.
In the case of Cc1nn(C(=O)c2ccc(Cl)cc2)c2c1C(c1ccc(O)cc1)SC(N)=N2 (configuration not stated), the TGI is reported as greater than 10 µM.

These compounds were tested on OVCAR-5 ovarian (assay: NCI anticancer screen, dose series, 48 h).
Work on COc1ccc2c(Oc3ccc(NC(=O)c4c(C)n(CC(C)(C)O)n(-c5ccccc5)c4=O)nc3)ccnc2c1 yielded a GI50 of 37.8 µM and a TGI greater than 89.6 µM.
CC1C(=O)OC2CC[N+]3([O-])CC=C(COC(=O)C(C)(O)C1(C)O)C23 (configuration not stated) was tested, and the TGI was greater than 100 µM.
O=C(OCc1ccc2c(Cl)cc(Cl)c(O)c2n1)N1CCN(C(=O)c2cc3cc(F)ccc3[nH]2)CC1 gave a GI50 greater than 37.5 µM and a TGI greater than 100 µM.
For COc1ccc(Cc2cnc(NC(=O)c3ccc4c(c3)OCCO4)s2)cc1, the GI50 was 0.0866 µM and the TGI was greater than 72.6 µM.
COCOc1ccc(C2(O)Oc3cc(OCOC)ccc3C2C)c(O)c1 (configuration not stated) was tested, and the TGI was 31.3 µM.
For C[C@H]1CCC/C=C/[C@@H]2C[C@H](O)C[C@H]2[C@H](O)[C@@H](SCC(O)CO)CC(=O)O1 (some centres not stated), the GI50 was 41.1 µM and the TGI was greater than 100 µM.
C=CCN1CC2CON(C(=O)C(OC)(c3ccccc3)C(F)(F)F)C2C1C(C)C (configuration not stated) gave a GI50 of 32 µg/mL.
